# Target: T1, CDK2 (Homo sapiens, UniProt P24941)
# T1 construct: HEK293 clonal lines with CRISPR KI HiBiT tag on CDK2 proteins; host or cells: HEK293 clonal line, CRISPR knock-in HiBiT-CDK2, stably expressing LgBiT
# Test: NanoBiT assay (CDK2 degradation)
# Format: cell-based
# Conditions: HEK293, HEK293 clonal line with CRISPR KI HiBiT tag on CDK2, Endurazine live cell substrate, 24 hours
# Experimental: HEK293 clonal lines with CRISPR KI HiBiT tag on either CDK2 proteins and stably expressing LgBiT protein were obtained from Promega (Madison, WI). Cells were plated at 5000 cells per well using Multiflo (BioTek) in 384-well white solid bottom plates (Corning, 3570BC) in 25 ul volume in DMEM media (DMEM, high glucose, HEPES, no phenol red (ThermoFisher Scientific, 21063029)) containing 10% FBS (Corning, 35-075-CV), 1% Penicillin/Streptomycin ((ThermoFisher Scientific, 15140-122), and 1% Endurazine (Nano-Glo Endurazine Live Cell Substrate (Promega, N2571)). Cells were incubated for 16 hours at 37 C, 5% CO2. 75 nL of a compound at 30 μM were dosed into the plate using an Echo® 650 liquid handler (Labcyte). Cells were incubated at 37° C., 5% CO2 for 24 hours and then signal was read on a Pherastar FSX using “LUM plus” optic module.
# Analysis was performed in Scinamic (Scinamic, Cambridge, MA). Luminescence response (R) was calculated by the formula: response=100*(S−N)/(P−N) where S is the signal of the well, N and P the mean negative and positive control values respectively of the same plate. The luminescence response was then fitted in Scinamic using a 3-parameter agonist logistic fit (hillslope=1, EC50>0, top/bottom unconstrained).
row,SMILES,Dmax
1,"C[C@@H]1CC[C@H](COC(=O)NCc2ccc3c(c2)C(=O)N(C2CCC(=O)NC2=O)C3)O1 (mixture of isomers) [Compound 68, rac-[(2R,5R)-5-methyloxolan-2-yl]methyl N-{[2-(2,6-dioxopiperidin-3-yl)-3-oxo-2,3-dihydro-1H-isoindol-5-yl]methyl}carbamate]",10 to 50%
2,"O=C1CCC(N2Cc3ccc(CNC(=O)OC[C@@H]4C[C@H]4F)cc3C2=O)C(=O)N1 (mixture of isomers) [Compound 75, rac-[(1R,2S)-2-fluorocyclopropyl]methyl N-{[2-(2,6-dioxopiperidin-3-yl)-3-oxo-2,3-dihydro-1H-isoindol-5-yl]methyl}carbamate]",≤ 10%
3,"C[C@@H]1CCOC1COC(=O)NCc1ccc2c(c1)C(=O)N(C1CCC(=O)NC1=O)C2 (mixture of isomers) [Compound 76, rac-[(2R,3S)-3-methyloxolan-2-yl]methyl N-{[2-(2,6-dioxopiperidin-3-yl)-3-oxo-2,3-dihydro-1H-isoindol-5-yl]methyl}carbamate]",≤ 10%
4,"O=C1CCC(N2Cc3ccc(CNC(=O)O[C@H]4C[C@@H]5C[C@H]4CC5(F)F)cc3C2=O)C(=O)N1 (mixture of isomers) [Compound 92, rac-(1R,2R,4R)-5,5-difluorobicyclo[2.2.1]heptan-2-yl N-{[2-(2,6-dioxopiperidin-3-yl)-3-oxo-2,3-dihydro-1H-isoindol-5-yl]methyl}carbamate]",≤ 10%
5,"CCC1(COC(=O)NCc2ccc3c(c2)C(=O)N(C2CCC(=O)NC2=O)C3)COC1 (stereo not shown) [Compound 42, (3-ethyloxetan-3-yl)methyl N-{[2-(2,6-dioxopiperidin-3-yl)-3-oxo-2,3-dihydro-1H-isoindol-5-yl]methyl}carbamate]",10 to 50%
6,"O=C1CCC(N2Cc3ccc(CNC(=O)OCC#CC4CC4)cc3C2=O)C(=O)N1 (stereo not shown) [Compound 44, 3-cyclopropylprop-2-yn-1-yl N-{[2-(2,6-dioxopiperidin-3-yl)-3-oxo-2,3-dihydro-1H-isoindol-5-yl]methyl}carbamate]",10 to 50%
7,"CC(=O)N1CCC(COC(=O)NCc2ccc3c(c2)C(=O)N(C2CCC(=O)NC2=O)C3)C1 (stereo not shown) [Compound 50, (1-acetylpyrrolidin-3-yl)methyl N-{[2-(2,6-dioxopiperidin-3-yl)-3-oxo-2,3-dihydro-1H-isoindol-5-yl]methyl}carbamate]",≤ 10%
8,"O=C1CCC(N2Cc3ccc(CNC(=O)OCC4CCCCS4)cc3C2=O)C(=O)N1 (stereo not shown) [Compound 53, (thian-2-yl)methyl N-{[2-(2,6-dioxopiperidin-3-yl)-3-oxo-2,3-dihydro-1H-isoindol-5-yl]methyl}carbamate]",10 to 50%
9,"CC(C)O[C@H]1C[C@@H](OC(=O)NCc2ccc3c(c2)C(=O)N(C2CCC(=O)NC2=O)C3)C1 (stereo partly shown) [Compound 55, (1s,3s)-3-(propan-2-yloxy)cyclobutyl N-{[2-(2,6-dioxopiperidin-3-yl)-3-oxo-2,3-dihydro-1H-isoindol-5-yl]methyl}carbamate]",10 to 50%
10,"COCC1(COC(=O)NCc2ccc3c(c2)C(=O)N(C2CCC(=O)NC2=O)C3)CCCC1 (stereo not shown) [Compound 57, [1-(methoxymethyl)cyclopentyl]methyl N-{[2-(2,6-dioxopiperidin-3-yl)-3-oxo-2,3-dihydro-1H-isoindol-5-yl]methyl}carbamate]",≤ 10%
11,"O=C1CCC(N2Cc3ccc(CNC(=O)OCC4CSC4)cc3C2=O)C(=O)N1 (stereo not shown) [Compound 60, (thietan-3-yl)methyl N-{[2-(2,6-dioxopiperidin-3-yl)-3-oxo-2,3-dihydro-1H-isoindol-5-yl]methyl}carbamate]",10 to 50%
12,"O=C1CCC(N2Cc3ccc(CNC(=O)OC[C@H]4[C@@H]5COC[C@@H]54)cc3C2=O)C(=O)N1 (stereo partly drawn) [Compound 61, [(1R,5S,6R)-3-oxabicyclo[3.1.0]hexan-6-yl]methyl N-{[2-(2,6-dioxopiperidin-3-yl)-3-oxo-2,3-dihydro-1H-isoindol-5-yl]methyl}carbamate]",≤ 10%
13,"CC1(C)[C@@H]2C[C@@H](OC(=O)NCc3ccc4c(c3)C(=O)N(C3CCC(=O)NC3=O)C4)C[C@@H]21 (stereo partly drawn) [Compound 62, (1R,3s,5S)-6,6-dimethylbicyclo[3.1.0]hexan-3-yl N-{[2-(2,6-dioxopiperidin-3-yl)-3-oxo-2,3-dihydro-1H-isoindol-5-yl]methyl}carbamate]",50 to 80%
14,"CC1(C)C2CCC1(COC(=O)NCc1ccc3c(c1)C(=O)N(C1CCC(=O)NC1=O)C3)CC2 (stereo not shown) [Compound 63, {7,7-dimethylbicyclo[2.2.1]heptan-1-yl}methyl N-{[2-(2,6-dioxopiperidin-3-yl)-3-oxo-2,3-dihydro-1H-isoindol-5-yl]methyl}carbamate]",10 to 50%
15,"C[C@@H](OC(=O)NCc1ccc2c(c1)C(=O)N(C1CCC(=O)NC1=O)C2)C1CC12CC2 (stereo partly drawn) [Compound 71, (1R)-1-{spiro[2.2]pentan-1-yl}ethyl N-{[2-(2,6-dioxopiperidin-3-yl)-3-oxo-2,3-dihydro-1H-isoindol-5-yl]methyl}carbamate]",≤ 10%
16,"O=C1CCC(N2Cc3ccc(CNC(=O)OCCC4CC4(F)F)cc3C2=O)C(=O)N1 (stereo not shown) [Compound 78, 2-(2,2-difluorocyclopropyl)ethyl N-{[2-(2,6-dioxopiperidin-3-yl)-3-oxo-2,3-dihydro-1H-isoindol-5-yl]methyl}carbamate]",≤ 10%
17,"O=C1CCC(N2Cc3ccc(CNC(=O)OCC4CCCS4(=O)=O)cc3C2=O)C(=O)N1 (stereo not shown) [Compound 82, (1,1-dioxo-1lambda6-thiolan-2-yl)methyl N-{[2-(2,6-dioxopiperidin-3-yl)-3-oxo-2,3-dihydro-1H-isoindol-5-yl]methyl}carbamate]",≤ 10%
18,"CC1(COC(=O)NCc2ccc3c(c2)C(=O)N(C2CCC(=O)NC2=O)C3)CCCCC1 (stereo not shown) [Compound 85, (1-methylcyclohexyl)methyl N-{[2-(2,6-dioxopiperidin-3-yl)-3-oxo-2,3-dihydro-1H-isoindol-5-yl]methyl}carbamate]",10 to 50%
19,"CC1(C)OC[C@@H](COC(=O)NCc2ccc3c(c2)C(=O)N(C2CCC(=O)NC2=O)C3)O1 (stereo partly drawn) [Compound 87, [(4S)-2,2-dimethyl-1,3-dioxolan-4-yl]methyl N-{[2-(2,6-dioxopiperidin-3-yl)-3-oxo-2,3-dihydro-1H-isoindol-5-yl]methyl}carbamate]",≤ 10%
20,"CN(C(=O)OC(C)(C)C)C1CC(COC(=O)NCc2ccc3c(c2)C(=O)N(C2CCC(=O)NC2=O)C3)C1 (stereo not shown) [Compound 96, (3-{[(tert-butoxy)carbonyl](methyl)amino}cyclobutyl)methyl N-{[2-(2,6-dioxopiperidin-3-yl)-3-oxo-2,3-dihydro-1H-isoindol-5-yl]methyl}carbamate]",10 to 50%
21,"CC1(COC(=O)NCc2ccc3c(c2)C(=O)N(C2CCC(=O)NC2=O)C3)CN(C2CC2)C1 (stereo not shown) [Compound 97, (1-cyclopropyl-3-methylazetidin-3-yl)methyl N-{[2-(2,6-dioxopiperidin-3-yl)-3-oxo-2,3-dihydro-1H-isoindol-5-yl]methyl}carbamate]",≤ 10%
22,"CC1CN(CCOC(=O)NCc2ccc3c(c2)C(=O)N(C2CCC(=O)NC2=O)C3)C1 (stereo not shown) [Compound 98, 2-(3-methylazetidin-1-yl)ethyl N-{[2-(2,6-dioxopiperidin-3-yl)-3-oxo-2,3-dihydro-1H-isoindol-5-yl]methyl}carbamate]",10 to 50%

# — patent US20240317706A1, “COMPOUNDS THAT MEDIATE PROTEIN DEGRADATION AND METHODS OF USE THEREOF” (Monte Rosa Therapeutics, Inc., priority 2021, published 2024)
